Measured values: patent publication US8497286B2, “Organic compounds” (Novartis AG, priority 2007, dated 2013)

What follows are compounds tested against recombinant human renin (Homo sapiens (Human), UniProt P00797) (assay: Renin inhibitory activity in vitro, FRET assay (item 2)). Details: recombinant human renin 0.5 nM, 2 h at 37° C., pH 7.4, peptide substrate 4 μM.
Type: biochemical
Description: Inter alia the following in vitro tests may be used: • 1) Recombinant human renin (expressed in Chinese Hamster Ovary cells and purified using standard methods) at 7.5 nM concentration is incubated with test compound at various concentrations for 1 h at RT in 0.1 M Tris-HCl buffer, pH 7.4, containing 0.05 M NaCl, 0.5 mM EDTA and 0.05% CHAPS. Synthetic peptide substrate […] is added to a final concentration of 2 μM and increase in fluorescence is recorded at an excitation wave-length of 350 nm and at an emission wave-length of 500 nm in a microplate spectro-fluorimeter. IC50 values are calculated from percentage of inhibition of renin activity as a function of test compound concentration (Fluorescence Resonance Energy Transfer, FRET, assay). […] Synthetic peptide substrate […] is added to a final concentration of 4 μM and increase in fluorescence is recorded at an excitation wave-length of 340 nm and at an emission wave-length of 485 nm in a microplate spectro-fluorimeter. IC50 values are calculated from percentage of inhibition of renin activity as a function of test compound concentration (Fluorescence Resonance Energy Transfer, FRET, assay). […] The enzyme reaction is stopped by adding an excess of a blocking inhibitor. The product of the reaction is separated by capillary electrophoresis and quantified by spectrophotometric measurement at […] wave-length. IC50 values are calculated from percentage of inhibition of renin activity as a function of test compound concentration. […] The enzyme reaction is stopped by adding an excess of a blocking inhibitor. The product of the reaction is separated by capillary electrophoresis and quantified by spectrophotometric measurement at […] wave-length. IC50 values are calculated from percentage of inhibition of renin activity as a function of test compound concentration. […] Renin inhibitory activity was assessed in vitro by the method as outlined above in item 2).

Sequence of recombinant human renin (P00797 67-406): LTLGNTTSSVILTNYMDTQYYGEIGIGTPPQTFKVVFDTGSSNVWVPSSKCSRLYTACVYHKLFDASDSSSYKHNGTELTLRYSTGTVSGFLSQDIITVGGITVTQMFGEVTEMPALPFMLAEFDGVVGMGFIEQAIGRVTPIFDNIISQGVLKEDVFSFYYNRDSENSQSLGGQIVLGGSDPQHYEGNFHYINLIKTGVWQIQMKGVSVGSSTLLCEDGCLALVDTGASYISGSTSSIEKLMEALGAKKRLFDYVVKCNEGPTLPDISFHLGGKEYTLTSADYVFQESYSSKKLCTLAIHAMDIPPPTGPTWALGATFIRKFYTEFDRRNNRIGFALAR

IC50 [nM] | SMILES
0.3 | CCOC[C@@H](CC(C)C)NC(=O)[C@@H]1CNC[C@H](C(=O)N(c2cc(OCC)c(CC)cn2)C2CC2)[C@@H]1O [Example 14]
6 | CCOC[C@@H](CC(C)C)NC(=O)[C@@H]1CNC[C@H](C(=O)N(CC(C)C)c2cc(OCCCO)c(C(C)C)cn2)[C@@H]1O [Example 15]
2.5 | CCOC[C@H](NC(=O)[C@@H]1CNC[C@H](C(=O)N(c2ccc(C(C)C)cn2)C2CC2)[C@@H]1O)C(C)C [Example 16]
9 | COC[C@H]1CC[C@H](NC(=O)[C@@H]2CNC[C@H](C(=O)N(c3cc(OC)c(C(C)C)cn3)C3CC3)[C@@H]2O)CC1 [Example 17]
0.6 | CCOC[C@H](NC(=O)[C@@H]1CNC[C@H](C(=O)N(c2cc(OCC)c(CC)cn2)C2CC2)[C@@H]1O)C(C)C [Example 18]

Further lines, the compound ahead of its results:

SMILES | IC50 [nM]
CCOC[C@@H](CC(C)C)NC(=O)[C@@H]1CNC[C@H](C(=O)N(c2ccc(C(C)C)cn2)C2CC2)C1 [Example 1] | 0.9
CCOC[C@@H](NC(=O)[C@@H]1CNC[C@H](C(=O)N(c2ccc(C(C)C)cn2)C2CC2)C1)C1CCCCC1 [Example 2] | 3
CCOC[C@@H](CC(C)C)NC(=O)[C@@H]1CNC[C@H](C(=O)N(CC(C)C)c2cc(OCCCOC)c(C(C)C)cn2)C1 [Example 3] | 0.6
CCOC[C@@H](CC(C)C)NC(=O)[C@@H]1CNC[C@H](C(=O)N(c2cc(OC)c(C(C)C)cn2)C2CC2)[C@@H]1O [Example 13] | 0.8
